Patent US8802660B2, “De novo synthesis of glucocorticoids in the epidermis and its uses and applications” (New York University, priority 2007, dated 2014)

How the values were obtained:
[1] = system: skin explant cultures; test: ELISA assay for cortisol released from skin explant cultures; type: cell-based, human; conditions: for effect on cortisol production (in words): 24 hours, metyrapone 200 μM; for induction of cortisol levels / cortisol production: after 24 hours, ACTH 0.1 μM, progesterone 1 μM
Description: (§1) Cells were cultured to 80% of confluency as described above in Example 1(C). 200 μl of the medium was collected at 0, 6, 12, 24, and 48 hours after the switch to basal medium, and cortisol production was measured using ELISA kit (R & D Systems, Minneapolis, Minn.) following commercial protocol.
(§2) To further confirm that keratinocytes produce glucocorticoids de novo, medium was collected from cultured cells grown in the minimal medium in the absence of any alternative GC source as described in Example 1(C). Cortisol production was measured after 0, 6, 12, 24, and 48 hours using the ELISA assay described in Example 1(E). To confirm the production in tissue, the production of cortisol released from skin in explant cultures was measured. As shown in FIG. 3(B), 11.1 ng/ml of cortisol was released by the skin.
(§3) A further experiment was performed where prior to measurement both the keratinocytes and the skin explant cultures were stimulated with 0.1 μM of ACTH. Cortisol production was measured after 24 hours using the ELISA assay described in Example 1(E). […] The addition of 1 μM of progesterone as a substrate for glucocorticoid synthesis lead to a 2.5 fold induction in cortisol production in both cells and skin (FIG. 7B). The addition of 200 μM metyrapone (Sigma) decreased endogenous levels of cortisol production (FIG. 7B).
(§4) To determine if injury-related molecules affect cortisol synthesis, IL-1 or IGF-1 was added to keratinocytes cultured as described in Example 1(C) or skin explants. IL-1 is a primary injury-response pro-inflammatory signal whereas IGF-1 is known to modulate glucocorticoid metabolism (Rappolee et al. (1988) Science 241:708-12). ACTH was used as a positive control. Cortisol levels were measured 24 hours post-treatment using the ELISA assay described in Example 1(E). […] In contract, IGF-1 inhibited cortisol production in both treated cells and tissue (FIG. 8(A)).

[2] = system: acute wounds in human skin specimens; test: Epithelialization in acute wounding model of human skin (histology); conditions: topical; air-liquid interface for 6 days; metyrapone 200 μM
Text: Human skin specimens were obtained from discarded tissue in reduction mammoplasty following approved Hospital for Special Surgery protocol (#25121). Preparation of tissue with acute wounds was done as previously described (Tomic-Canic et al. (2007) Wound Repair Regen. 15(1):71-9); Stojadinovic et al. (2005) Am. J. Pathol. 167(1):59-69). The adipose tissue was removed, and circular templates of skin were generated using a 6 mm biopsy punch. A 3 mm biopsy punch was used to create an acute wound. The skin specimens were maintained at the air-liquid interface with DMEM (BioWhittaker, Walkersville, Md.) with antibiotics-antimycotics, and fetal bovine serum (FBS) (Gemini Bio-Products, Woodland, Calif.) for 0, 4, 48, and 96 hours in the presence or absence of 1 μM dexamethasone (Sigma, St. Louis, Mo.). Acute wounds were fixed in 4% paraformaldehyde (Sigma) at room temperature overnight, dehydrated with ethanol, cleared in chloroform, and embedded in paraffin.
The effect of glucocorticoids on epithelialization was tested using the acute wounding model described in Example 1(A). The wounded skin was maintained at the air-liquid interface for 6 days. Wounds were maintained in the presence or absence of clobetasol propionate (routinely used by dermatologists in the treatment of inflammatory skin disorders). Healing rates was determined by histology. […]

[3] = system: glucocorticoid receptor; test: Immunohistochemistry of phosphorylated (hormone-activated) GR in acute wound sections; parameters: species or system human; conditions: treated acute wound samples
Description: Human skin specimens were obtained from discarded tissue in reduction mammoplasty following approved Hospital for Special Surgery protocol (#25121). […] The adipose tissue was removed, and circular templates of skin were generated using a 6 mm biopsy punch. A 3 mm biopsy punch was used to create an acute wound. […] Acute wounds were fixed in 4% paraformaldehyde (Sigma) at room temperature overnight, dehydrated with ethanol, cleared in chloroform, and embedded in paraffin.
Six μm tissue sections were serially cut on a microtome (HM 315, Carl Zeiss, New York, N.Y.) and mounted on slides. Sections were dewaxed in xylene, re-hydrated and washed with 1× phosphate buffered saline (PBS). For antigen retrieval, paraffin sections were heated in a 95° C. water bath in Target Retrieval Solution (DAKO Corporation, Carpinteria, Calif.). Histological slides were treated with 3% H2O2/30% MeOH for 30 minutes, rinsed with water, and blocked with normal rabbit serum for 30 minutes (Vectastatin Kit Elite ABC, Vectorlabs, Burlingame, Calif.). […] Sections were analyzed using a Carl Zeiss microscope. […]

[4] = system: β-catenin; test: Immunohistochemistry of phosphorylated β-catenin in chronic wound biopsies (diabetic foot ulcers); parameters: species or system human; conditions: topically applied to chronic wound biopsies
Description: Chronic wound tissue was obtained from discarded tissue of biopsies of consenting patients having surgical debridement using approved Columbia University protocol.
Slides were counterstained with hematoxylin. […] Sections were analyzed using a Carl Zeiss microscope. Digital images were taken with Adobe TWAIN—32 program.
It has been previously reported that β-catenin and c-myc participate in inhibition of wound healing and contribute to the impairment of healing in chronic wounds. […] To test if endogenous glucocorticoid participates in β-catenin activation in patients with chronic wounds, metyrapone was topically applied to chronic wound biopsies from patients with diabetic foot ulcers (as described in Example 1(A)). The effects were evaluated by measuring phosphorylation and intracellular translocation of β-catenin by immunohistochemistry as described in Example 1(B), except using an antibody targeting phosphorylated (activated) form of β-catenin (Cell Signaling Technology, Danvers, Mass.). […] As also shown in FIG. 12, this effect can be reversed by the addition of an exogenous glucocorticoid.

[5] = system: c-myc; test: Northern Blot and Western Blot of c-myc in keratinocytes and tissue; type: cell-based, human
Description: Keratinocytes were grown to 80% confluency, switched to the basal media for 24 hours, and incubated with 1 mM dexamethasone (Sigma) for 24 and 48 hours. Cells were harvested by trypsinization and cytoplasmic and nuclear fractions were obtained using Nuclear Extract Kit (Active Motif, Carlsbad, Calif.) following commercial protocol. 15 μg of each fraction was separated on a 10% SDS-PAGE gel. The proteins were then transferred to a nitrocellulose membrane (Protran®, Bioscience, Dassel, Germany) using the semi-dry transfer system (BioRad, Hercules, Calif.). Ponceau S was used to check the efficiency of the transfer. […] The membrane was washed 3 times for 5 minutes in TTBS and then incubated at 4° C. overnight with GR antibody (1:500) (Affinity Bioreagents) followed with horseradish […] (HRP) conjugated to anti-rabbit secondary antibody (1:1000) (Santa Cruz Biotech, Santa Cruz, Calif.). Immune complexes were visualized using Super Signal West Pico Chemiluminescent substrate (Pierce, Rockford, Ill.). Immunoblot was exposed on x-ray film (HyBlot CL, Denville, N.J.) according to manufacturer's instruction.
It was also found by Northern Blot analysis using acute wound tissue that c-myc was induced at 96 hours post-wounding (FIG. 11(B)).
Using Western Blot analysis, it was shown that protein levels of c-myc were induced by exogenous glucocorticoid and blocked by metyrapone (FIG. 11(C)).

[6] = system: primary human keratinocytes; test: ELISA assay for cortisol in medium of cultured keratinocytes; type: cell-based; conditions: for effect on cortisol production (in words) / induction of cortisol levels / cortisol production: keratinocytes; for effect on cortisol production (in words): 24 hours, metyrapone 200 μM; for induction of cortisol levels / cortisol production: after 24 hours, ACTH 0.1 μM, progesterone 1 μM
Description: Normal human epidermal keratinocytes were initiated using 3T3 feeder layers as previously described (Randolph and Simon (1993) J. Biol. Chem. 268(13):9198-9205) and frozen in liquid nitrogen until use. Once thawed, the keratinocytes were grown without feeder cells in defined serum-free keratinocyte medium supplemented with epidermal growth factor and bovine pituitary extract (keratinocyte-SFM, GIBCO, Carlsbad, Calif.). Cells were expanded through two 1:4 passages before they were grown to 80% confluency. Cells were washed several times with 1×PBS before they were incubated with basal keratinocyte medium (GIBCO) custom made without hydrocortisone and thyroid hormone.
as §1, §2
as §3, with “Cortisol” for “A further experiment was performed where prior to measurement both the keratinocytes and the skin explant cultures were stimulated with 0.1 μM of ACTH. Cortisol”
as §4

[7] = system: CYP11B1; test: RT-PCR of CYP11B1 expression in treated keratinocytes; type: cell-based, human
Description: RNA isolation and purification was performed using Triazol (Invitrogen, Carlsbad, Calif.) extraction and subsequent Qiagen RNeasy Kit column purification (Qiagen, Alameda, Calif.). Reverse transcription and amplification were performed using primers CYP11B1 fw GCTAGACATAGGGGCTCC (SEQ ID no. 1), CYP11B1-rev AGGTGTTTCAGCACATGG (SEQ ID no. 2)and Access RT-PCR Kit (Promega, Madison, Wis.) as follows: (a) reverse transcription—1 cycle at 48° C. for 45 minutes; (b) AMV RT inactivation and RNA/cDNA primer denaturation—1 cycle at 94° C. for 2 minutes; (c) second strand cDNA synthesis and PCR amplification—35 cycles: denaturation for 30 seconds, annealing at 51° C. for 1 minute and extension at 68° C. for 2 minutes; and (d) final extension—1 cycle at 68° C. for 7 minutes. Samples were separated by electrophoresis on 2% agarose gels containing 0.5 μg/ml of ethidium bromide and visualized under UV light.
To elucidate the possible mechanism of regulation involved in these observations, the expression of CYP11B1 was measured using RT-PCR as described in Example 1(G). The expression levels of CYP11B1 corresponded to the cortisol production. IL-1 induced the expression of CYP11B1 similar to ACTH, whereas IGF-1 inhibited its expression (FIG. 8(B)).

## [Ca+2].[Cl-].[Cl-] [CaCl2]
[1]; increased CaCl2 levels
  effect on cortisol production in the skin: decrease

## CCC(=O)O[C@]1(C(=O)CCl)[C@@H](C)C[C@H]2[C@@H]3CCC4=CC(=O)C=C[C@]4(C)[C@@]3(F)[C@@H](O)C[C@@]21C [clobetasol propionate]
[2]
  epithelialization / wound closure: completely inhibited epithelialization

## CC(C)(C(=O)c1cccnc1)c1cccnc1 [metyrapone]
[3]
  hormone-activated GR in the nucleus (anti-phospho-Ser211 staining): absence of GR in the nucleus
[2]
  epithelialization / wound closure: complete wound closure
[4]
  β-catenin phosphorylation and nuclearization: abolished
[5]
  protein levels of c-myc (Western Blot): blocked
[6]
  effect on cortisol production (in words): decreased
[1]; skin explants
  effect on cortisol production (in words): decreased

## IGF-1: known to modulate glucocorticoid metabolism
[7]
  expression of CYP11B1 (RT-PCR): inhibited
[6]
  effect on cortisol production (in words): inhibited
[1]; skin explants
  effect on cortisol production (in words): inhibited

## CC(=O)[C@H]1CC[C@H]2[C@@H]3CCC4=CC(=O)CC[C@]4(C)[C@H]3CC[C@]12C [progesterone]
[6]
  induction of cortisol levels / cortisol production: 2.5 fold
[1]; skin explants
  induction of cortisol levels / cortisol production: 2.5 fold

## adrenocorticotropic hormone (SYSMEHFRWGKPVGKKRRPVKVYPNGAEDESAEAFPLEF; Corticotropin; UniProt P01189 138-176, looked up) [ACTH, stimulates synthesis of glucocorticoid]
[7]
  expression of CYP11B1 (RT-PCR): induced
[6]; keratinocytes in culture, 0.1mM of ACTH
  induction of cortisol levels: 2.7 fold
[6]
  induction of cortisol levels / cortisol production: 2.7 fold
[1]; skin explants, 0.1 μM of ACTH
  induction of cortisol levels: 2.01 fold
[1]; skin explants
  induction of cortisol levels / cortisol production: 2.0 fold
